“And” between values parts separate entries of the source, which are not always exact repeats. Equal values may be shown once. Each block holds one compound with its values, some of them ahead of it.
Columns and labels:
porcine pepsin = molecular target: T1, porcine pepsin (Sus scrofa, UniProt P00791); assay: Peptide stability in simulated gastric fluid (SGF); format: in vitro ADME; settings: for SGF stability, Residual peptide Average / SGF stability, Residual peptide: after 8 h vs 0 h (TIC); for SGF stability, Residual peptide Average: average of R1-R3; for SGF stability, Residual peptide: single replicates R1-R3; for remaining at 8 h: simulated gi fluid, 37 °C, pH 1.2, read-out: Proteolytic stability: SGF (8 h) % remaining
T1 construct: 0.32 g of porcine pepsin (Sigma-Aldrich, P7125) was dissolved under gentle agitation; purchased Sigma-Aldrich P7125
T1 sequence (P00791 60-385): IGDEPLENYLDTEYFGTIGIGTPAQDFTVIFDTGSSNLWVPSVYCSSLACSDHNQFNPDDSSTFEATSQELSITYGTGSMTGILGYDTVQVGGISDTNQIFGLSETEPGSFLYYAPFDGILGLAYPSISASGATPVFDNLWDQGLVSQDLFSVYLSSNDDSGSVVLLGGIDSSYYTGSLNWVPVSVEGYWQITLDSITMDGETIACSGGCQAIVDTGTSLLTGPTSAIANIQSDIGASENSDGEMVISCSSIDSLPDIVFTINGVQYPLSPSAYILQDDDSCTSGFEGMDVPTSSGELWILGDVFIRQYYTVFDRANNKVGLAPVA
Procedure, shortened: (§1)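 Peptide from a 1 mM DMSO stock was added to fluid pre-warmed at 37 °C. SGF was pH 1.2 NaCl with porcine pepsin (0.32 g per 100 ml), and SIF was pH 6.8 potassium phosphate with porcine pancreatin (1 g per 100 ml). Supernatant peptide was quantified by LC–MS, with residual expressed as T1/T0.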

[1] = Peptide stability in simulated intestinal fluid (SIF); format: in vitro ADME, porcine; settings: simulated gi fluid; 8 h, 37 °C, pH 6.8; read-out: Proteolytic stability: SIF (8 h) % remaining
Procedure, shortened: as §1

porcine pancreatin = assay: as above; format: in vitro ADME; settings: after 8 h vs 0 h (TIC); average of R1-R3
Procedure, shortened: as §1

[2] = Metabolic stability in rat liver microsomes (RLMs); settings: rat, microsomes
human α-thrombin = human α-thrombin (Homo sapiens, UniProt P00734); assay: Protease inhibition, Ki for human α-thrombin (fluorogenic substrate Z-Gly-Gly-Arg-AMC); format: biochemical; settings: replicates R1-R3
Procedure, shortened: (§2)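 Inhibition was measured as AMC fluorescence from 50 μM substrate, monitored for 30 min at 25 °C, relative to a peptide-free control. Human and rat enzymes were present at 2 nM and 3 nM final, respectively, in 50 mM Tris-HCl pH 7.4, 150 mM NaCl, 10 mM MgCl2, 1 mM CaCl2. Ki derives from fitted IC50 via Cheng–Prusoff.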

rat α-thrombin = molecular target: T2, rat α-thrombin (Rattus norvegicus, UniProt P18292); assay: Protease inhibition, Ki for rat α-thrombin (fluorogenic substrate Z-Gly-Gly-Arg-AMC); format: biochemical; settings: replicates R1-R3
T2 construct: rat α-thrombin (Molecular Innovations) were used at final concentrations of 2 nM and 3 nM; purchased Molecular Innovations
Procedure, shortened: as §2

[3] = Passive artificial membrane permeability (PAMPA); settings: for PAMPA permeability: % permeability: 50 μM, 12–18 h, acceptor concentration relative to equilibrium; for Papp at 50 μM / Permeability% Average / Permeability% R1 / Permeability% R3: PAMPA; for Papp at 50 μM: pH 7.4; for Permeability% Average: average of R1-R3; for Permeability% R1: replicate R1; for Permeability% R1 / Permeability% R3: TIC of top well sample relative to sample at theoretical equilibrium; for Permeability% R3: replicate R3
[4] = CL (ul/min/mg protein) R1, RLM CL, replicate R1
[5] = CL (ul/min/mg protein) R2, RLM CL, replicate R2
[6] = CL (ul/min/mg protein) R3, RLM CL, replicate R3
[7] = Half Life (min) R1, RLM metabolic stability, replicate R1, 0-60 min
[8] = Half Life (min) R2, RLM metabolic stability, replicate R2, 0-60 min
[9] = Half Life (min) R3, RLM metabolic stability, replicate R3, 0-60 min
[10] = Metabolic stability: Half life T1/2 (min), RLMs, mean and SD, three measurements
[11] = Metabolic stability: RLM CL (ul/min/mg), RLMs, mean and SD, three measurements
[12] = peptide 1.33E+02 uM, slope of proteolytic substrate cleavage over time

- SGF stability, Residual peptide Average (porcine pepsin): 98.62
- SGF stability, Residual peptide (porcine pepsin): 100.84 and 98.47 and 96.53
- remaining at 8 h (porcine pepsin): 99 ± 2%
- remaining at 8 h [1]: 88 ± 18%
- SIF stability, Residual peptide Average (porcine pancreatin): 87.61
- microsomal CLint [2, 4]: 87.8 µL/min/mg
- microsomal CLint [2, 5]: 76.3 µL/min/mg
- microsomal CLint [2, 6]: 81.9 µL/min/mg
- half-life [2, 7]: 15.8 min
- half-life [2, 8]: 18.2 min
- half-life [2, 9]: 16.9 min
- half-life [2, 10]: 17 ± 1 min
- microsomal CLint [2, 11]: 82 ± 5 µL/min/mg
- Human alpha thrombin inhibition, slope normalized to DMSO (human α-thrombin; peptide 1.02E-03 uM): 100.6 and 98.3 and 99.0
- Human alpha thrombin inhibition, slope normalized to DMSO (human α-thrombin; peptide 1.04E+00 uM): 68.1 and 68.7 and 68.9
- Human alpha thrombin inhibition, slope normalized to DMSO (human α-thrombin; peptide 1.27E-04 uM): 101.1 and 97.6 and 104.9
- Human alpha thrombin inhibition, slope normalized to DMSO (human α-thrombin; peptide 1.30E-01 uM): 90.7 and 100.7 and 97.5
- Human alpha thrombin inhibition, slope normalized to DMSO (human α-thrombin; [12]): 4.8 and 5.5 and 1.6
- Human alpha thrombin inhibition, slope normalized to DMSO (human α-thrombin; peptide 1.63E-02 uM): 110.6 and 96.8 and 100.1
- Human alpha thrombin inhibition, slope normalized to DMSO (human α-thrombin; peptide 1.67E+01 uM): 12.1 and 12.4 and 14.6
- Human alpha thrombin inhibition, slope normalized to DMSO (human α-thrombin; peptide 2.03E-03 uM): 101.2 and 99.3 and 100.0
- Human alpha thrombin inhibition, slope normalized to DMSO (human α-thrombin; peptide 2.08E+00 uM): 65.0 and 52.9 and 51.5
- Human alpha thrombin inhibition, slope normalized to DMSO (human α-thrombin; peptide 2.54E-04 uM): 99.3 and 97.7 and 101.2
- Human alpha thrombin inhibition, slope normalized to DMSO (human α-thrombin; peptide 2.60E-01 uM): 95.0 and 89.4 and 94.7
- Human alpha thrombin inhibition, slope normalized to DMSO (human α-thrombin; peptide 3.18E-05 uM): 97.8 and 94.7 and 100.8
- Human alpha thrombin inhibition, slope normalized to DMSO (human α-thrombin; peptide 3.26E-02 uM): 94.1 and 101.2 and 106.3
- Human alpha thrombin inhibition, slope normalized to DMSO (human α-thrombin; peptide 3.33E+01 uM): 8.2 and 10.1 and 12.2
- Human alpha thrombin inhibition, slope normalized to DMSO (human α-thrombin; peptide 4.07E-03 uM): 102.2 and 130.5 and 101.9
- Human alpha thrombin inhibition, slope normalized to DMSO (human α-thrombin; peptide 4.17E+00 uM): 34.4 and 33.3 and 35.3
- Human alpha thrombin inhibition, slope normalized to DMSO (human α-thrombin; peptide 5.09E-04 uM): 99.7 and 107.7 and 101.3
- Human alpha thrombin inhibition, slope normalized to DMSO (human α-thrombin; peptide 5.21E-01 uM): 82.1 and 87.9 and 83.3
- Human alpha thrombin inhibition, slope normalized to DMSO (human α-thrombin; peptide 6.36E-05 uM): 100.1 and 97.7 and 104.2
- Human alpha thrombin inhibition, slope normalized to DMSO (human α-thrombin; peptide 6.51E-02 uM): 100.7 and 90.2 and 100.6
- Human alpha thrombin inhibition, slope normalized to DMSO (human α-thrombin; peptide 6.67E+01 uM): 5.7 and 5.6 and 9.1
- Human alpha thrombin inhibition, slope normalized to DMSO (human α-thrombin; peptide 8.14E-03 uM): 98.8 and 99.9 and 103.6
- Human alpha thrombin inhibition, slope normalized to DMSO (human α-thrombin; peptide 8.33E+00 uM): 23.8 and 18.1 and 21.3
- Rat alpha thrombin inhibition, slope normalized to DMSO (rat α-thrombin; [12]): 1.8 and 3.0 and 9.6
- Rat alpha thrombin inhibition, slope normalized to DMSO (rat α-thrombin; peptide 1.67E+01 uM): 7.1 and 6.4 and 13.3
- Rat alpha thrombin inhibition, slope normalized to DMSO (rat α-thrombin; peptide 2.08E+00 uM): 34.4 and 33.4 and 32.9
- Rat alpha thrombin inhibition, slope normalized to DMSO (rat α-thrombin; peptide 3.33E+01 uM): 4.1 (2×) and 10.8
- Rat alpha thrombin inhibition, slope normalized to DMSO (rat α-thrombin; peptide 4.17E+00 uM): 21.9 and 19.6 and 23.7
- Rat alpha thrombin inhibition, slope normalized to DMSO (rat α-thrombin; peptide 6.67E+01 uM): 2.7 and 2.8 and 9.5
- Rat alpha thrombin inhibition, slope normalized to DMSO (rat α-thrombin; peptide 8.33E+00 uM): 12.5 and 11.7 and 18.6
- PAMPA permeability: % permeability [3]: 20 ± 10%
- Papp at 50 μM [3]: 1.35 ×10⁻⁶ cm/s
- Permeability% Average [3]: 20.3%
- Permeability% R1 [3]: 29.62%
- Permeability% R3 [3]: 22.19%
SMILES: O=C1CC2CCN(CC2)C(=O)[C@H](Cc2ccccc2)NC(=O)[C@@H](NC(=O)c2ccc(Cl)s2)CSCc2cccc(n2)CSCCN1 [compound 15]

- SGF stability, Residual peptide Average (porcine pepsin): 99.15
- SGF stability, Residual peptide (porcine pepsin): 102.14 and 93.27 and 102.05
- remaining at 8 h (porcine pepsin): 99 ± 5%
- remaining at 8 h [1]: 96 ± 6%
- SIF stability, Residual peptide Average (porcine pancreatin): 95.62
- microsomal CLint [2, 4]: 90.2 µL/min/mg
- microsomal CLint [2, 5]: 68.8 µL/min/mg
- microsomal CLint [2, 6]: 72.9 µL/min/mg
- half-life [2, 7]: 15.4 min
- half-life [2, 8]: 20.1 min
- half-life [2, 9]: 19 min
- half-life [2, 10]: 18.2 ± 2 min
- microsomal CLint [2, 11]: 77 ± 9 µL/min/mg
- microsomal CLint ([2]; Metabolic stability: RLM CL Average, summary table, average of R1-R3): 77.3 µL/min/mg
- microsomal CLint ([2]; Metabolic stability: RLM CL R1, summary table, rounded, replicate R1): 90.2 µL/min/mg
- microsomal CLint ([2]; Metabolic stability: RLM CL R2, summary table, rounded, replicate R2): 68.8 µL/min/mg
- microsomal CLint ([2]; Metabolic stability: RLM CL R3, summary table, rounded, replicate R3): 73 µL/min/mg
- Human alpha thrombin inhibition, slope normalized to DMSO (human α-thrombin; peptide 1.02E-03 uM): 102.9 and 99.8 and 96.6
- Human alpha thrombin inhibition, slope normalized to DMSO (human α-thrombin; peptide 1.04E+00 uM): 56.9 and 56.3 and 49.2
- Human alpha thrombin inhibition, slope normalized to DMSO (human α-thrombin; peptide 1.27E-04 uM): 90.5 and 95.3 and 95.8
- Human alpha thrombin inhibition, slope normalized to DMSO (human α-thrombin; peptide 1.30E-01 uM): 71.9 and 86.4 and 78.8
- Human alpha thrombin inhibition, slope normalized to DMSO (human α-thrombin; [12]): 6.4 and 9.7 and 4.3
- Human alpha thrombin inhibition, slope normalized to DMSO (human α-thrombin; peptide 1.63E-02 uM): 99.5 and 89.1 and 90.1
- Human alpha thrombin inhibition, slope normalized to DMSO (human α-thrombin; peptide 1.67E+01 uM): 16.0 and 14.1 and 9.4
- Human alpha thrombin inhibition, slope normalized to DMSO (human α-thrombin; peptide 2.03E-03 uM): 98.8 and 94.5 and 92.3
- Human alpha thrombin inhibition, slope normalized to DMSO (human α-thrombin; peptide 2.08E+00 uM): 52.9 and 44.1 and 36.2
- Human alpha thrombin inhibition, slope normalized to DMSO (human α-thrombin; peptide 2.54E-04 uM): 106.8 and 94.8 and 97.0
- Human alpha thrombin inhibition, slope normalized to DMSO (human α-thrombin; peptide 2.60E-01 uM): 78.1 and 77.3 and 67.5
- Human alpha thrombin inhibition, slope normalized to DMSO (human α-thrombin; peptide 3.18E-05 uM): 100.4 and 97.0 and 90.2
- Human alpha thrombin inhibition, slope normalized to DMSO (human α-thrombin; peptide 3.26E-02 uM): 100.0 and 89.9 and 87.8
- Human alpha thrombin inhibition, slope normalized to DMSO (human α-thrombin; peptide 3.33E+01 uM): 12.7 and 10.3 and 16.0
- Human alpha thrombin inhibition, slope normalized to DMSO (human α-thrombin; peptide 4.07E-03 uM): 92.6 and 96.1 and 91.8
- Human alpha thrombin inhibition, slope normalized to DMSO (human α-thrombin; peptide 4.17E+00 uM): 39.5 and 36.2 and 29.7
- Human alpha thrombin inhibition, slope normalized to DMSO (human α-thrombin; peptide 5.09E-04 uM): 101.4 and 93.9 and 96.1
- Human alpha thrombin inhibition, slope normalized to DMSO (human α-thrombin; peptide 5.21E-01 uM): 64.5 and 65.3 and 59.0
- Human alpha thrombin inhibition, slope normalized to DMSO (human α-thrombin; peptide 6.36E-05 uM): 103.2 and 97.0 and 93.0
- Human alpha thrombin inhibition, slope normalized to DMSO (human α-thrombin; peptide 6.51E-02 uM): 93.3 and 87.6 and 88.6
- Human alpha thrombin inhibition, slope normalized to DMSO (human α-thrombin; peptide 6.67E+01 uM): 9.5 and 8.1 and 4.7
- Human alpha thrombin inhibition, slope normalized to DMSO (human α-thrombin; peptide 8.14E-03 uM): 100.4 and 99.0 and 91.1
- Human alpha thrombin inhibition, slope normalized to DMSO (human α-thrombin; peptide 8.33E+00 uM): 24.1 and 22.7 and 13.9
- Rat alpha thrombin inhibition, slope normalized to DMSO (rat α-thrombin; [12]): 4.6 and 7.6 and 2.5
- Rat alpha thrombin inhibition, slope normalized to DMSO (rat α-thrombin; peptide 1.67E+01 uM): 7.9 and 9.3 and 7.8
- Rat alpha thrombin inhibition, slope normalized to DMSO (rat α-thrombin; peptide 2.08E+00 uM): 26.1 and 28.9 and 26.4
- Rat alpha thrombin inhibition, slope normalized to DMSO (rat α-thrombin; peptide 3.33E+01 uM): 4.7 and 8.8 and 5.5
- Rat alpha thrombin inhibition, slope normalized to DMSO (rat α-thrombin; peptide 4.17E+00 uM): 21.7 and 23.0 and 20.8
- Rat alpha thrombin inhibition, slope normalized to DMSO (rat α-thrombin; peptide 6.67E+01 uM): 5.5 and 8.4 and 4.7
- Rat alpha thrombin inhibition, slope normalized to DMSO (rat α-thrombin; peptide 8.33E+00 uM): 11.6 and 14.0 and 11.0
- PAMPA permeability: % permeability [3]: 0.35 ± 0.03%
- Papp at 50 μM [3]: 0.0229 ×10⁻⁶ cm/s
- Permeability% Average [3]: 0.35%
- Permeability% R1 [3]: 0.32%
- Permeability% R3 [3]: 0.38%
SMILES: O=C1C[C@H]2CCCN2C(=O)[C@H](Cc2ccccn2)NC(=O)[C@@H](NC(=O)c2ccc(Cl)s2)CSCCS(=O)(=O)CCSCCN1 [compound 12]

— article PMC11062899, “De novo development of small cyclic peptides that are orally bioavailable” (Nature Chemical Biology, 2023)
